Data from patent US6277867A, “Pesticide compounds, compositions and process for the preparation thereof” (priority 1995, dated 2001).
Read-outs that look alike come from different tables or passages of the source.

Experiments:
[1] = tested on: resistant house fly, IX strain; assay: Synergistic activity on resistant house fly, IX strain; assay type: in vivo, Musca domestica
Method: (§1) Investigation of Synergistic Activity on Resistant House Fly (Musca domestica) Populations
(§2) Investigation was carried out as described in biological Example 1. LD50 values and synergist ratios were determined as given in Example 2.

[2] = tested on: resistant house fly, INSEL strain; assay: Synergistic activity on resistant house fly, INSEL strain; assay type: in vivo, Musca domestica
Method: as §1, §2

[3] = tested on: two-spotted spider mite (Tetranychus urticae); assay: Synergist activity of compound 599 against two-spotted spider mite; assay type: in vivo
Method: From the first pair of leaves of a 1 week old bean plant leaf-discs of […] diameter were cut which were treated by dipping them (5 min) into the test solution consisting of the active ingredient and the synergist in definite concentrations. For the preparation of the stock solutions of required concentration, 10% acetone as co-solvent and 0.1% Tween-80 as detergent were applied. The dried leaf-discs were placed on wet surface and they were infected with […]-up female mites per leaf. […] The experiment was performed in 4 replica.
Synergist activity of compound 599 with various specific acaricides was investigated against two-spotted spider mite (Tetranychus urticae), by the method described in Example 8.

[4] = tested on: pea aphid (Acyrthosiphon pisun); assay: Synergist activity against pea aphid, field trial; assay type: in vivo; details: two days after treatment
Method: Synergist Activity Against Pea Aphid (Acyrthosiphon pisun)
Synergist activity of compound No. 599 was tested against pea aphid (Acyrthosiphon pisun) in field trials on small plots (10 m^2). 300 l/ha spray volume was applied using motoric sprayer (Maruyama). Efficacy was expressed by the average number of aphids/leaf before, and two days after the treatment, respectively. (Henderson and Tilton: J. Econ. Entomol., 48:157, 1955).

[5] = tested on: two-spotted spider mite (Tetranychus urticae); assay: Synergism of acaricidal effect on two-spotted spider mite (leaf-disc dip); assay type: in vivo
Method: Synergism of Acaricidal Effect Investigated on Two-spotted Spider Mite (Tetranychus urticae)
From the first pair of leaves of a 1 week old bean plant leaf-discs of […] diameter were cut which were treated by dipping them (5 min) into the test solution consisting of the active ingredient and the synergist in definite concentrations. For the preparation of the stock solutions of required concentration, 10% acetone as co-solvent and 0.1% Tween-80 as detergent were applied. The dried leaf-discs were placed on wet surface and they were infected with […]-up female mites per leaf. After 48 hours the mortality was recorded using microscope and a brush. The experiment was performed in 4 replica.

[6] = tested on: cotton bollworm (Helicoverpa armigera); assay: Synergist spectrum on cotton bollworm, topical; assay type: in vivo
Method: (§3) Investigation of Synergist Spectrum on House Fly (Musca domestica) and Cotton Bollworm (Helicoverpa armigera) Following Topical Administration
(§4) Synerzistic activities of materials No. 279 and 599 of the present invention for various active ingredients were determined on house fly (Musca domestica) and cotton bollworm (Helicoverpa armigera) using methods of treatments as described in biological Examples 1 and 2. For the active ingredients ISO common names are given (see: Pesticide Manual 1994).

[7] = tested on: cotton bollworm (Helicoverpa armigera); assay: Synergistic activity on cotton bollworm following topical application; details: in vivo
Method: Investigation of Synergistic Activity on Cotton Bollworm (Helicoverpa armigera) Following Topical Application
Treatment was performed similarity as described in Example 1. but L2 stadium grubs of cotton bollworms (Helicoverpa armigera) were treated as test animals. From the 24 hour dose--mortality data the LD50 (ng/grub) values were determined using probit analysis. None of the synergists acted at the applied 1000 ng/grub dose. Synergist ratio was calculated as the quotient of the LD50 values of carbofuran administered alone, and with the synergist. The experiments were performed in 2-4 replica.

[8] = tested on: house fly (Musca domestica); assay: Synergist spectrum on house fly, topical; assay type: in vivo
Method: as §3, §4

flies = assay: Comparative investigations with known reference synergists on flies treated with carbofuran; assay type: in vivo; details: flies treated with carbofuran and 1000 ng of the synergist
From the text: These SR50 ratios were compared to those of the new compounds prepared by us.

[9] = tested on: house fly (Musca domestica); details: in vivo, topical_or_ocular, 1440 min
Method: Investigation of Synergistic Activity on House Fly (Musca domestica) Following Topical Application
In two parallel experiments 10 female. 2-4 day old house flies were treated on the vental side of their thorax with 0.2 μl of the test solution, with the help of Hamilton MicroLab P microdispenser. Beside fixed synergist dose of 1000 ng/fly the animals were treated with carbofuran at a dose of 20 ng/fly. For solvent cellosolve was used. Selection and counting of the flies were performed under the action of CO2. After treatment the flies were kept in plastic cups covered with tulle. Mortality after 24 hours was expressed in %.

[10] = tested on: house fly (Musca domestica); assay: Effect on fecundity, on house fly; assay type: in vivo; details: 500 ppm in granulated sugar, 48 hours feeding; eggs of next 10 days
Method: Investigation of the Effect on Fecundity, on House Fly (Musca domestica)
Groups consisting of freshly hatched 50 male and 50 female flies were fed during 48 hours with granulated sugar comprising 500 ppm of material No. 441 and 484 of the present invention respectively, and the eggs layed on the next 10 days were raised. The fecundity-hindering effect was expressed as the quotient of the emerged flies in the treated and untreated groups. The experiments were performed in 4 replica.

[11] = alone, 31 ppm, 48 hours, read-out: Mortality %
[12] = alone, 62 ppm, 48 hours, read-out: Mortality %
[13] = alone, 125 ppm, 48 hours, read-out: Mortality %

## CNC(=O)O/N=C/C(C)(C)SC [ALDICARB, reference compound]
[1]; active ingredient alone
  LD50: 2104 ng/fly
[2]; active ingredient alone
  LD50: 695 ng/fly

## CNC(=O)Oc1cccc2c1OC(C)(C)C2 [CARBOFURAN, reference compound]
[1]; active ingredient alone
  LD50: > 100000 ng/fly
[3]; 24 h
  LC50: 164 µg/mL
[4]; dose 110 act. ingr./ha
  E (%): 98.0%
[4]; dose 160 act. ingr./ha
  E (%): 99.1%
[2]; active ingredient alone
  LD50: 15375 ng/fly
[5]; 48 h
  mortality at 31 ppm: 13%
  mortality at 62 ppm: 39%
  mortality at 125 ppm: 44%
  mortality at 250 ppm: 81%
  mortality at 500 ppm: 90%

## CC#CCOCc1cccc2ccccc12 [Compound 279, 1-naphthyl-methyl 2-butynyl ether]
[6]; with AZINPHOSMETHYL
  Synergist ratio: > 5
[6]; with BENDIOCARB
  Synergist ratio: > 10
[6]; with CARBOFURAN
  Synergist ratio: > 10
[6]; with CHLORPYRIPHOS
  Synergist ratio: > 5
[6]; with LINDAN
  Synergist ratio: > 5
[6]; with PROPOXUR
  Synergist ratio: > 10
[7]
  Synergist ratio: > 5
[1]; ALDICARB + 279
  LD50: 507 ng/fly
  SR: 4
[1]; BENDIOCARB + 279
  LD50: 746 ng/fly
  SR: 134
[1]; CARBOFURAN + 279
  LD50: 94 ng/fly
  SR: 4760
[1]; ISOPROCARB + 279
  LD50: 2145 ng/fly
  SR: 47
[1]; METHOMYL + 279
  LD50: 109 ng/fly
  SR: 5
[1]; PIRIMICARB + 279
  LD50: 3562 ng/fly
  SR: 115
[8]; with AMINOCARB
  Synergist ratio: > 20
[8]; with AZINPHOSMETHYL
  Synergist ratio: > 5
[8]; with BENDIOCARB
  Synergist ratio: > 20
[8]; with CARBOFURAN
  Synergist ratio: > 20
[8]; with CHLORPYRIPHOS
  Synergist ratio: > 5
[8]; with DIOXACARB
  Synergist ratio: > 20
[8]; with ESBIOL
  Synergist ratio: > 5
[8]; with FENOBUCARB
  Synergist ratio: > 10
[8]; with IMIDACLOPRID
  Synergist ratio: > 5
[8]; with ISOPROCARB
  Synergist ratio: > 40
[8]; with LINDAN
  Synergist ratio: > 5
[8]; with METHOMYL
  Synergist ratio: > 10
[8]; with PIRIMICARB
  Synergist ratio: > 20
[8]; with PROPOXUR
  Synergist ratio: > 20
[8]; with THIODICARB
  Synergist ratio: > 10
flies
  Synergist ratio SR50: 28.7
[9]
  mortality %: 72%
[2]; ALDICARB + 279
  LD50: 172 ng/fly
  SR: 4
[2]; BENDIOCARB + 279
  LD50: 150 ng/fly
  SR: 667
[2]; CARBOFURAN + 279
  LD50: 29 ng/fly
  SR: 530
[2]; ESBIOL + 279
  LD50: 794 ng/fly
  SR: 13
[2]; ISOPROCARB + 279
  LD50: 983 ng/fly
  SR: 102
[2]; METHOMYL + 279
  LD50: 46 ng/fly
  SR: 10
[2]; PIRIMICARB + 279
  LD50: 696 ng/fly
  SR: 145
[5]; [11]
  mortality at 31 ppm: 0%
[5]; [12]
  mortality at 62 ppm: 6%
[5]; [13]
  mortality at 125 ppm: 8%
[5]; alone, 250 ppm, 48 hours, read-out: Mortality %
  mortality at 250 ppm: 18%
[5]; alone, 500 ppm, 48 hours, read-out: Mortality %
  mortality at 500 ppm: 30%

## N#Cc1nn(-c2c(Cl)cc(C(F)(F)F)cc2Cl)c(N)c1[S+]([O-])C(F)(F)F (centres unmarked) [FIPRONIL]
[4]; dose 240 act. ingr./ha
  E (%): 94.6%

## CC#CCOC(c1ccc2c(c1)OCO2)C(C)C (centres unmarked) [Compound 484, 5-[2-Methyl-1-(2-butynyloxy)-propyl]-1,3-benzodioxole]
[10]
  Hindering effect on fecundity: 90%
[7]
  Synergist ratio: > 5
[9]
  mortality %: 63%

## O=[N+]([O-])NC1=NCCN1Cc1ccc(Cl)nc1 [IMIDACLOPRID]
[4]; dose 120 act. ingr./ha
  E (%): 98.4%

## CCc1nn(C)c(C(=O)NCc2ccc(C(C)(C)C)cc2)c1Cl [TEBUFENPYRAD]
[3]; Acaricide/Synergist 1:0, 3 h, read-out: LC50
  LC50: > 1000 µg/mL
[3]; Acaricide/Synergist 1:0, 24 h, read-out: LC50
  LC50: 63.4 µg/mL

## CC(C)OC(=O)C(O)(c1ccc(Br)cc1)c1ccc(Br)cc1 [BROMOROPYLATE]
[5]; [11]
  mortality at 31 ppm: 18%
[5]; [12]
  mortality at 62 ppm: 28%
[5]; [13]
  mortality at 125 ppm: 90%
